Results published in publication PMC8765781, “A platform of assays for the discovery of anti-Zika small-molecules with activity in a 3D-bioprinted outer-blood-retina model” (PLoS ONE, 2022).
Where two headings read alike, the source gives them in different places.

Assays:
[1] = tested on: ZIKV-RLuc (Cambodian strain FSS13025); assay: microbe, parasite or virus in culture; assay type: cell-based, Zika virus
[2] = Zika virus, Vero, read-out: Log AC50 (M) (converted)

SMILES	CC-v2 (curve class classification v2 of the dose response curve) [1]	Efficacy (difference between neutral response and maximum compound response) [1]	Max Resp (difference between neutral response and compound response for highest compound concentration) [1]	AC50 ([1]; Zika virus, Vero)	AC50 [1, 2]	AC50 (Vero cells)	Log AC50 (M) (Vero cells)	AC50 [1]	Log AC50 (M) [1]
COc1cc(C(=O)NC2CCN(C)CC2)ccc1Nc1ncc2c(n1)N(C1CCCC1)CCC(=O)N2C(C)C [NCGC00346965-01]	-2.4	-47.886	-47.265	1.31e-05 M	1.31e-05 M	13.1 µM	-4.8827 M	–	–
OCCN1CCN(CCCN2c3ccccc3Sc3ccc(C(F)(F)F)cc32)CC1 [NCGC00015436-11]	-3	-75.446	-79.581	2.61e-05 M	2.61e-05 M	26.1 µM	-4.5827 M	–	–
Cc1c(Cn2c(C)nc3c(C(=O)O)cc(N4CCOCC4)cc32)cccc1C(F)(F)F [NCGC00345796-01]	-2.2	-74.499	-73.923	1.47e-05 M	1.47e-05 M	14.7 µM	-4.8327 M	–	–
CC(=O)O/N=C1\C(=O)N(Cc2cc(Cl)ccc2Cl)c2ccc(Cl)cc21 [NCGC00247668-01]	-2.1	-136.639	-99.757	1.65e-05 M	1.65e-05 M	16.5 µM	-4.7827 M	–	–
CN(C)C1CCN(CCCOc2ccc(-c3ccc(C#N)cc3)cc2)C1 (stereo not drawn) [NCGC00165730-02]	-3	-68.814	-57.023	3.69e-05 M	3.69e-05 M	36.9 µM	-4.4327 M	–	–
C=CC(=O)N1CCC[C@@H](n2nc(-c3ccc(Oc4ccccc4)cc3)c3c(N)ncnc32)C1 [NCGC00187912-02]	–	-91.422	-83.345	9.28e-06 M	9.27e-06 M	9.28 µM	-5.0327 M	–	–
CC(=O)Nc1ccc([C@H](C)C(=O)Nc2ncc(C(C)C)s2)cc1 [NCGC00263191-01]	-1.1	-109.113	-98.511	2.33e-06 M	2.33e-06 M	2.33 µM	-5.6327 M	–	–
NC(=O)C1(N2CCCCC2)CCN(CCCN2c3ccccc3CCc3ccc(Cl)cc32)CC1 [NCGC00253595-01]	-3	-112.083	-100.465	2.61e-05 M	2.61e-05 M	–	-4.5827 M	–	–
O=C(Nc1ccc([N+](=O)[O-])cc1Cl)c1cc(Cl)ccc1O [NCGC00015735-11]	-1.1	-106.368	-100.429	–	–	0.362 µM	-6.4408 M	3.62e-07 M	-6.4408
CCCN(CC1CC1)c1nc(C)nc(Nc2c(Cl)cc(Cl)cc2Cl)c1Cl [NCGC00015737-02]	-3	-116.403	-99.557	3.69e-05 M	3.69e-05 M	36.9 µM	-4.4327 M	–	–
C[C@@H]1CC[C@@]2(OC1)O[C@H]1C[C@H]3[C@@H]4CC=C5C[C@@H](O[C@@H]6O[C@H](CO)[C@@H](O[C@@H]7O[C@@H](C)[C@H](O)[C@@H](O)[C@H]7O)[C@H](O)[C@H]6O[C@@H]6O[C@@H](C)[C@H](O)[C@@H](O)[C@H]6O)CC[C@]5(C)[C@H]4CC[C@]3(C)[C@H]1[C@@H]2C [NCGC00346600-01]	-1.1	-96.499	-99.01	3.29e-06 M	3.29e-06 M	3.29 µM	-5.4827 M	–	–
CC(=O)O[C@H]1C(=O)[C@@]2(C)[C@H]([C@H](OC(=O)c3ccccc3)[C@]3(O)C[C@H](OC(=O)[C@H](O)[C@@H](NC(=O)c4ccccc4)c4ccccc4)C(C)=C1C3(C)C)[C@]1(OC(C)=O)CO[C@@H]1C[C@@H]2O [NCGC00164367-10]	-1.2	-44.84	-48.24	1.39e-07 M	1.39e-07 M	0.139 µM	-6.8582 M	–	–
CC[C@@H]1C(=O)N(C)c2cnc(Nc3ccc(C(=O)NC4CCN(C)CC4)cc3OC)nc2N1C1CCCC1 [NCGC00253438-01]	-1.1	-120.006	-99.011	2.33e-06 M	2.33e-06 M	2.33 µM	-5.6327 M	–	–
CN1CCN(CCCN2c3ccccc3Sc3ccc(C(F)(F)F)cc32)CC1 [NCGC00013226-15]	-2.1	-93.82	-95.429	2.33e-05 M	2.33e-05 M	23.3 µM	-4.6327 M	–	–
CCC(=C/[C@H](C)C/C=C/C(C)=C/[C@@H](C)C(=O)[C@@H](C)[C@H](O)[C@@H](C)C/C(C)=C/C(=O)O)/C=C/[C@@H]1OC(=O)C=C[C@@H]1C [NCGC00162440-02]	-1.2	-71.611	-66.361	4.76e-09 M	4.76e-09 M	0.00476 µM	-8.3224 M	–	–
O=c1[nH]c2ccccc2n1C1CCN(Cc2ccc(-c3nc4cc5nc[nH]c5cc4nc3-c3ccccc3)cc2)CC1 [NCGC00165727-01]	-2.1	-80.197	-82.143	1.65e-05 M	1.65e-05 M	16.5 µM	-4.7827 M	–	–
C=C(C)[C@H]1CCC(C)=C[C@@H]1c1c(O)cc(CCCCC)cc1O [NCGC00385066-01]	-3	-124.845	-99.067	3.69e-05 M	3.69e-05 M	36.9 µM	-4.4327 M	–	–
CC1(C)CCC(C)(C)c2cc(NC(=O)c3ccc(C(=O)O)cc3)ccc21 [NCGC00181111-02]	-2.1	-104.922	-87.275	–	–	36.9 µM	-4.4327 M	3.69e-05 M	-4.4327
CC(C)(C)OC(=O)N[C@@H](Cc1ccc(O[S+](=O)([O-])c2cccc3cnccc23)cc1)C(=O)N1CCCN(C(=O)OC(C)(C)C)CC1 [NCGC00348020-01]	-3	-104.596	-83.301	3.69e-05 M	3.69e-05 M	36.9 µM	-4.4327 M	–	–
COc1cc([C@@H]2c3cc4c(cc3[C@H](O)[C@H]3COC(=O)[C@@H]23)OCO4)cc(OC)c1OC [NCGC00161923-04]	-1.2	-67.755	-62.284	2.93e-06 M	2.93e-06 M	2.93 µM	-5.5327 M	–	–
COC1C(O)C(OC2CCC3(C)C(CCC4C3CCC3(C)C(C5=CC(=O)OC5)CCC43O)C2)OC(C)C1OC1OC(COC2OC(CO)C(O)C(O)C2O)C(O)C(O)C1O (stereo not drawn) [NCGC00380220-01]	-1.1	-95.552	-99.662	1.29e-06 M	1.29e-06 M	1.29 µM	-5.8908 M	–	–
COC(=O)C1=C(C)NC(C)=C(C(=O)OCCN(C)Cc2ccccc2)C1c1cccc([N+](=O)[O-])c1 (stereo not drawn) [NCGC00015747-03]	-3	-68.655	-54.296	3.69e-05 M	3.69e-05 M	36.9 µM	-4.4327 M	–	–
COC(=O)C1(Cc2ccc(O)c(CC=C(C)C)c2)OC(=O)C(OC)=C1c1cc(O)c(O)c(CC=C(C)C)c1 (stereo not drawn) [NCGC00347732-02]	-1.1	-101.002	-99.456	9.28e-06 M	9.27e-06 M	9.28 µM	-5.0327 M	–	–
